Like-named read-outs stand apart in the source and are kept apart here.
Assays:
[1] = biological target: T1, HIV-1 IN (Human immunodeficiency virus type 1 group M subtype B, UniProt P12497); assay: In vitro IN inhibition assay (3’-processing and strand transfer); type: biochemical; conditions: Mn2+ cofactor (7.5 mM MnCl2)
T1 construct: pre-incubated with purified recombinant IN (at a final concentration of 200 nM); made in house
Method: (§1) All compounds were dissolved in DMSO to a final stock concentration of 10 mM and stored at −20 °C. Initial screening for IN inhibitory effect was done at 100 μM and dilutions were made in DMSO. Compounds showing at least 50% inhibition at 100 μM were selected for IC50 determinations. γ-[^32P]-ATP was purchased from Perkin Elmer (Waltham, MA, USA). The expression system for wild-type IN was a generous gift of Dr. Robert Craigie, Laboratory of Molecular Biology, NIDDK, NIH (Bethesda, MD, USA). His-tagged APE1 was purified from an expression system kindly provided by Dr. Tom Curran, Department of Developmental Neurobiology, St. Jude Children’s Research Hospital (Memphis, TN, USA).
(§2) 21-mer oligonucleotides used in IN inhibition assay [21top (5’-[…]-3’) and 21bot (5’-ACTGCTAGAGATTTTCCA CAC-3’)] were purchased from Integrated DNA Technologies (Coralville, IA, USA) and purified by UV shadowing on polyacrylamide gel. The oligonucleotides used in APE1 inhibition assay [top strand: 5′-ATTTCACCGGTACG(F)TCTAGAATC CG-3′ containing the tetrahydrofuran synthetic abasic residue (F), and bottom strand: 3′-TAAAGTGG CCATGC(C)AGATCTTAGGC-5′] were purchased from The Midland Certified Reagent Company (Midland, TX, USA). To analyze the extent of 3’-processing and strand transfer with 5’-end labeled substrates, 21top was 5’-end labeled using T4 polynucleotide kinase (Epicentre, Madison, WI, USA) and [γ-^32P]-ATP (Perkin Elmer, Waltham, MA, USA). The kinase was heat-inactivated at 95 °C and 21bot was added in […]. The reaction mixture was allowed to cool slowly to room temperature, and purified through a spin-25 minicolumn (USA Scientific, Ocala, FL, USA) to separate annealed double-stranded oligonucleotide from unincorporated material. The oligonucleotides used in the APE1 inhibition assay were labeled using a similar protocol.
To determine the extent of 3’-processing and strand transfer, the test compounds, diluted in DMSO, were pre-incubated with purified recombinant IN (at a final concentration of 200 nM) in the reaction buffer [50 mM NaCl, 1 mM HEPES (pH 7.5), 50 μM EDTA, 50 μM dithiothreitol, 10% glycerol (w/v), 7.5 mM MnCl2, 0.1 mg mL–1 bovine serum albumin, 10 mM 2-mercaptoethanol, 10% dimethyl sulfoxide, and 25 mM MOPS (pH 7.2)] at 30 °C for 30 min. For Mg^2+ assay, 7.5 mM MgCl2 was substituted for MnCl2 and an optimal concentration of PEG was included in the reaction buffer. Following the pre-incubation, 20 nM of the 5’-end ^32P-labeled linear oligonucleotide substrate was added to the reaction mixture and incubated for an additional 1 h. Reactions were quenched by addition of 50X loading dye (98% deionized formamide, 10 mM EDTA, 0.025% xylene cyanol, and 0.025 % bromophenol blue). An aliquot was subjected to electrophoresis on a denaturing polyacrylamide gel (0.09 M tris–borate, pH 8.3, 2 mM EDTA, 20% acrylamide, 8M urea). Gels were dried under vacuum, exposed in a PhosphorImager cassette and visualized with a Typhoon 8610 Variable Mode Imager (Amersham Biosciences). Quantification was done with Image Quant 5.2 software. Percent inhibition (%I) was calculated using the following equation: %I = 100 × [1 − (D − C) / (N − C)] where C, N, and D are the fractions of 21-mer substrate converted into 19-mer (product of 3’-processing) or strand-transfer products for DNA alone, DNA plus IN, and DNA, IN plus test compound, respectively. IC50 values were determined by plotting the logarithm of test compound concentrations as a function of %I to obtain the concentration that produced 50% inhibition.

[2] = biological target: T2, human apurinic/apyrimidinic endonuclease 1 (APE1) (Homo sapiens, UniProt P27695); assay: APE1 inhibition assay; type: biochemical; conditions: read-out: Inhibition of APE1 catalytic activity IC50
T2 construct: His; made in house
Method: as §1, §2
APE1 inhibition assay was performed as previously described. To determine the extent of endonucleolytic cleavage of the abasic residue, the test compounds, diluted in DMSO, were preincubated with recombinant APE1 at a final concentration of 0.05 nM in the reaction buffer [50 mM NaCl, 1 mM HEPES, pH 7.5, 50 μM EDTA, 50 μM dithiothreitol, 10% glycerol (w/v), 7.5 mM MnCl2, 0.1 mg mL‑1 bovine serum albumin, 10 mM 2-mercaptoethanol, 10% DMSO, and 25 mM MOPS, pH 7.2] at 30 °C for 10 min. Following preincubation, 200 nM of the 5′-end ^32P-labeled linear oligonucleotide substrate was added, and incubated for an additional 10 minutes. Reactions were quenched by the addition of an equal volume (16 μL) of loading dye (98% deionized formamide, 10 mM EDTA, 0.025% xylene cyanol, and 0.025% bromophenol blue). An aliquot (5 μL) was electrophoresed on a denaturing 20% polyacrylamide gel (0.09 M tris-borate pH 8.3, 2 mM EDTA, 20% acrylamide, 8 M urea). The gels were dried, exposed in a PhosphorImager cassette and analyzed using a Typhoon 8610 Variable Mode Imager (Amersham Biosciences). Quantification of enzyme inhibition was done using Image Quant 5.2 software. The percent inhibition (% I) was calculated using the following equation: %I = 100 × [1 − (D − C) / (N − C)] where C, N, and D are the fractions of 26-mer substrate converted to 13-mer incision products (or integration products) for DNA alone, DNA plus APE1, and DNA, APE1 plus test compound, respectively. IC50 values were determined by plotting the logarithm of compound concentration as a function of %I to obtain the concentration that produced 50% inhibition. An optimum concentration of APE1 enzyme, at which there is complete conversion of the synthetic abasic-site containing oligonucleotide substrate to its cleaved product without subsequent exonuclease activity, was used in the assay.

[3] = read-out: Inhibition of IN catalytic activity IC50, 3’-Processing
[4] = read-out: Inhibition of IN catalytic activity IC50, Strand Transfer

T2 sequence (P27695 whole entry): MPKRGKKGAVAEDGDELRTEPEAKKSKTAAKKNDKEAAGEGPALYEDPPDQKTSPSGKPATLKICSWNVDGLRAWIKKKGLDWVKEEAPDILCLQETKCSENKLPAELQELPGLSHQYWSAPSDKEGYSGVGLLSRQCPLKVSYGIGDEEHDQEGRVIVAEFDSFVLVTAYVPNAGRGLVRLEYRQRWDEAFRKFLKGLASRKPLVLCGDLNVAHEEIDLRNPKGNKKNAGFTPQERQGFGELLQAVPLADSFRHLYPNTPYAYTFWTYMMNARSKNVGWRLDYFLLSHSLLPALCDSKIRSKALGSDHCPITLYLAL

| Structure (SMILES) | IC50 [1, 3] [µM] | IC50 [1, 4] [µM] | IC50 [2] [µM] | melting point [°C] |
| --- | --- | --- | --- | --- |
| COc1cc(NC(=O)C(=S)NN2C(=O)C(=Cc3ccc([N+](=O)[O-])o3)SC2=S)cc(OC)c1OC [Compound 19, 2-{5-[(5-Nitro-2-furyl)methylene]-4-oxo-2-thioxo-1,3-thiazolidin-3-yl}amino-2-thioxo-N-(3,4,5-tri-methoxyphenyl)acetamide] | 40 ± 28 | 25 ± 11 | > 100 | 201 to 202 |
| CCOc1cc(-n2cnnn2)c(OCC)cc1NC(=O)C(=S)NN1C(=O)C(=Cc2ccc([N+](=O)[O-])o2)SC1=S [Compound 20, N-[2,5-diethoxy-4-(1H-tetrazol-1-yl)phenyl]-2-{5-[(5-nitro-2-furyl)methylene]-4-oxo-2-thioxo-1,3-thiazolidin-3-yl}amino-2-thioxoacetamide] | > 100 | 85 ± 21 | > 100 | 136 to 138 |
| Cc1cc(NC(=O)C(=S)NN2C(=O)/C(=C\c3ccc([N+](=O)[O-])o3)SC2=S)ccc1-n1cnnn1 [Compound 21, N-[3-methyl-4-(1H-tetrazol-1-yl)phenyl]-2-{5-[(5-nitro-2-furyl)methylene]-4-oxo-2-thioxo-1,3-thia-zolidin-3-yl}amino-2-thioxoacetamide] | > 100 | > 100 | > 100 | 161 to 162 |
| COc1cc(C=C2SC(=S)N(NC(=S)C(=O)Nc3cc(OC)c(OC)c(OC)c3)C2=O)cc(OC)c1OC [Compound 22, 2-{[4-Oxo-2-thioxo-5-(3,4,5-trimethoxybenzylidene)-1,3-thiazolidin-3-yl]amino}-2-thioxo-N-(3,4,5-tri-methoxyphenyl)acetamide] | > 100 | 90 | > 100 | 196 to 197 |
| CCOc1cc(-n2cnnn2)c(OCC)cc1NC(=O)C(=S)NN1C(=O)C(=Cc2cc(OC)c(OC)c(OC)c2)SC1=S [Compound 23, N-[2,5-diethoxy-4-(1H-tetrazol-1-yl)phenyl]-2-{[4-oxo-2-thioxo-5-(3,4,5-trimethoxybenzylidene)-1,3-thiazolidin-3-yl]amino}-2-thioxoacetamide] | > 100 | > 100 | 83 | 158 to 159 |
| COc1cc(C=C2SC(=S)N(NC(=S)C(=O)Nc3ccc(-n4cnnn4)c(C)c3)C2=O)cc(OC)c1OC [Compound 24, N-[3-methyl-4-(1H-tetrazol-1-yl)phenyl]-2-{[4-oxo-2-thioxo-5-(3,4,5-trimethoxybenzylidene)-1,3-thiazolidin-3-yl]amino}-2-thioxoacetamide] | > 100 | > 100 | > 100 | 173 to 174 |
| COc1cc(C=C2SC(=S)N(NC(=S)C(=O)Nc3cccc(C(F)(F)F)c3)C2=O)cc(OC)c1OC [Compound 25, 2-{[4-Oxo-2-thioxo-5-(3,4,5-trimethoxybenzylidene)-1,3-thiazolidin-3-yl]amino}-2-thioxo-N-[3-(tri-fluoromethyl)phenyl]acetamide] | > 100 | > 100 | > 100 | 160 to 161 |
| COc1cc(NC(=O)C(=S)NN2C(=O)C(=Cc3cc(Cl)ccc3O)SC2=S)cc(OC)c1OC [Compound 27, 2-{[5-(5-Chloro-2-hydroxybenzylidene)-4-oxo-2-thioxo-1,3-thiazolidin-3-yl]amino}-2-thioxo-N-(3,4,5-trimethoxyphenyl)acetamide] | 83 ± 25 | 20 | > 100 | 216 to 217 |
| COc1cc(NC(=O)C(=S)NN2C(=O)C(=Cc3cc(Br)ccc3O)SC2=S)cc(OC)c1OC [Compound 28, 2-{[5-(5-Bromo-2-hydroxybenzylidene)-4-oxo-2-thioxo-1,3-thiazolidin-3-yl]amino}-2-thioxo-N-(3,4,5-trimethoxyphenyl)acetamide] | 44 ± 13 | 30 ± 19 | > 100 | 208 to 209 |
| COc1cc(NC(=O)C(=S)NN2C(=O)C(=Cc3cccc([N+](=O)[O-])c3O)SC2=S)cc(OC)c1OC [Compound 29, 2-{[5-(2-Hydroxy-3-nitrobenzylidene)-4-oxo-2-thioxo-1,3-thiazolidin-3-yl]amino}-2-thioxo-N-(3,4,5-trimethoxyphenyl)acetamide] | 74 ± 18 | 72 ± 23 | > 100 | 193 to 194 |
| COc1cc(NC(=O)C(=S)NN2C(=O)C(=Cc3cc([N+](=O)[O-])ccc3O)SC2=S)cc(OC)c1OC [Compound 30, 2-{[5-(2-Hydroxy-5-nitrobenzylidene)-4-oxo-2-thioxo-1,3-thiazolidin-3-yl]amino}-2-thioxo-N-(3,4,5-trimethoxyphenyl)acetamide] | 47 ± 30 | > 100 | > 100 | 205 to 206 |
| CCOc1cccc(C=C2SC(=S)N(NC(=S)C(=O)Nc3cc(OC)c(OC)c(OC)c3)C2=O)c1O [Compound 31, 2-{[5-(3-Ethoxy-2-hydroxybenzylidene)-4-oxo-2-thioxo-1,3-thiazolidin-3-yl]amino}-2-thioxo-N-(3,4,5-trimethoxyphenyl)acetamide] | > 100 | > 100 | > 100 | 231 to 232 |
| C=CCc1cccc(C=C2SC(=S)N(NC(=S)C(=O)Nc3cc(OC)c(OC)c(OC)c3)C2=O)c1O [Compound 32, 2-{[5-(3-Allyl-2-hydroxybenzylidene)-4-oxo-2-thioxo-1,3-thiazolidin-3-yl]amino}-2-thioxo-N-(3,4,5-trimethoxyphenyl)acetamide] | 82 ± 5 | 83 ± 3 | > 100 | 174 to 175 |

Source: paper PMC6264390, “Design, Synthesis and Structure-activity Studies of Rhodanine Derivatives as HIV-1 Integrase Inhibitors” (Molecules, 2010)
